Active and inactive are the calls of the source. How the calls were made is not given here.
Target: N-formyl peptide receptor 2 (Homo sapiens) (UniProt P25090)
Assay: concentration-dependent FPRL1 ligand displacement – cell-based, FPR counter-screen, fluorescent ligand, dose response (AID 520)
Conditions: FPRL1-expressing cells, fluorescent ligand binding inhibition; for Ki: measured here: FPRL1 binding Ki

N-formyl peptide receptor 2 (Homo sapiens), sequence (P25090 whole entry, looked up): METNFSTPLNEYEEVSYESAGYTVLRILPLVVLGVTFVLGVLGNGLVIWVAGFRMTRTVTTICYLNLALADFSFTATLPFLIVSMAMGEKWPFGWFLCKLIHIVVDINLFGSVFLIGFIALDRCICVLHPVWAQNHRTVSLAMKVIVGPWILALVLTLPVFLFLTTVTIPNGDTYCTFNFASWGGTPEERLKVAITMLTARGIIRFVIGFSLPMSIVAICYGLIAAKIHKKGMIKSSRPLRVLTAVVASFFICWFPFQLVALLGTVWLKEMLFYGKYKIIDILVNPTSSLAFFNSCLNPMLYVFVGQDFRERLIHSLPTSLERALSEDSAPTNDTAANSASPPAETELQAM

| Ki | IC50 | Compound |
| --- | --- | --- |
| > 40.3 µM |  | O=c1cc(-c2ccccc2)nc(N2CCN(Cc3ccccc3)CC2)[nH]1 |
| > 40.3 µM | > 66.7 µM (inactive) | COc1ccc(/C(O)=C2\C(=O)C(=O)N(Cc3ccco3)C2c2ccc(OC)cc2OC)cc1 (stereo not drawn) |
| > 40.3 µM | > 66.7 µM (inactive) | O=C(C1=C(O)C(=O)N(c2ncccn2)C1c1ccc(Cl)cc1)c1ccco1 (stereo not drawn) |
| > 40.3 µM |  | O=C(NCCN1CCOCC1)NC1(C(F)(F)F)Oc2ccc(Cl)cc2O1 (stereo not drawn) |
| > 40.3 µM |  | CCOC(=O)c1c(NC(=O)C2C3CCC(O3)C2C(=O)O)sc(C)c1-c1ccc(C)cc1 (stereo not drawn) |
| > 40.3 µM |  | COc1ccccc1-c1c(C)oc2cc(OC(=O)c3ccco3)ccc2c1=O |
| > 40.3 µM | > 66.7 µM (inactive) | CCCOc1ccc(C2C(C(=O)c3ccco3)=C(O)C(=O)N2CCCn2ccnc2)cc1 (stereo not drawn) |
| > 40.3 µM | > 66.7 µM (inactive) | Cc1ccc(C2/C(=C(/O)c3cnn(-c4ccccc4)c3C)C(=O)C(=O)N2CCN2CCOCC2)o1 (stereo not drawn) |
| > 40.3 µM | > 66.7 µM (inactive) | COc1ccc(/C(O)=C2/C(=O)C(=O)N(CCN3CCOCC3)C2c2ccc(C)cc2)cc1 (stereo not drawn) |
| > 40.3 µM | > 66.7 µM (inactive) | CCCOc1ccc(C2C(C(=O)c3ccc(C)o3)=C(O)C(=O)N2Cc2cccnc2)cc1 (stereo not drawn) |
| > 40.3 µM |  | Cc1cccc(-n2nc3c(c2NC(=O)c2ccco2)CSC3)c1C |
| > 40.3 µM | > 66.7 µM (inactive) | CSCCC1C(C#N)=C(N)Oc2n[nH]c(-c3cccs3)c21 (stereo not drawn) |
| > 40.3 µM |  | CCC(SC1=Nc2ccccc2C2=NC(CC(C)C)C(=O)N12)C(=O)Nc1ccc2c(c1)OCO2 (stereo not drawn) |
| > 40.3 µM |  | CCOC(=O)c1cc(NC(=O)C2C3CCC(O3)C2C(=O)O)cc(C(=O)OCC)c1 (stereo not drawn) |
| 11.2 µM |  | CCOc1cc(C(=O)NCc2nnc(SCC(=O)OC)n2C)cc(OCC)c1OCC |
| > 40.3 µM | > 66.7 µM (inactive) | COc1cc(C2C(C(=O)c3ccc(C)o3)=C(O)C(=O)N2Cc2cccnc2)ccc1O (stereo not drawn) |
| > 40.3 µM |  | CCCOc1ccc2c(=O)c(N3C(=O)c4ccccc4C3=O)c(C)oc2c1 |
| > 40.3 µM | > 66.7 µM (inactive) | CCCOc1ccc(C2C(C(=O)c3ccc(C)o3)=C(O)C(=O)N2CCCn2ccnc2)cc1 (stereo not drawn) |
| > 40.3 µM |  | Cc1ccc(NC(=O)C2CCCN2S(=O)(=O)c2cccc3cccnc23)cc1F (stereo not drawn) |
| > 40.3 µM | > 66.7 µM (inactive) | COCCCN1C(=O)C(O)=C(C(=O)c2ccco2)C1c1ccccc1 (stereo not drawn) |
| > 40.3 µM |  | Cc1ccc(Nc2ccc(C(=O)O)cc2N)cc1 |
| > 40.3 µM |  | O=C(Nc1ccc(Nc2ccccc2)cc1)c1ccc(Br)o1 |
| > 40.3 µM | > 66.7 µM (inactive) | COC(=O)c1ccc(C2/C(=C(/O)c3ccc(OC)cc3)C(=O)C(=O)N2Cc2ccco2)cc1 (stereo not drawn) |
| > 40.3 µM |  | CCCCNC(=O)c1sc(=S)n2c1[nH]c(=O)c1ccccc12 |

| Ki | IC50 | Compound |
| --- | --- | --- |
| > 40.3 µM | > 66.7 µM (inactive) | COc1cccc(C2/C(=C(\O)c3ccc(OC)c(OC)c3)C(=O)C(=O)N2c2cc(C)on2)c1 (stereo not drawn) |
| > 40.3 µM |  | CSc1ccccc1NS(=O)(=O)c1ccccc1 |
| > 40.3 µM | > 66.7 µM (inactive) | COc1ccccc1C1/C(=C(/O)c2ccccc2)C(=O)C(=O)N1CC(C)O (stereo not drawn) |
| > 40.3 µM |  | COc1ccc(-c2nc(-c3ccc(Br)o3)no2)cc1OC |
| > 40.3 µM | > 66.7 µM (inactive) | COc1ccc(C2C(C(=O)c3ccco3)=C(O)C(=O)N2Cc2cccnc2)cc1OC (stereo not drawn) |
| > 40.3 µM |  | COC(=O)C1(S(=O)(=O)c2cccc3nsnc23)CC1 |
| > 40.3 µM | > 66.7 µM (inactive) | COCCCN1C(=O)C(=O)/C(=C(/O)c2ccc(OC)cc2C)C1c1cccnc1 (stereo not drawn) |
| > 40.3 µM |  | Cc1oc2cc(O)cc(O)c2c(=O)c1-c1ccc2c(c1)OCCCO2 |
| > 40.3 µM | > 66.7 µM (inactive) | COCCCN1C(=O)C(=O)/C(=C(/O)c2ccccc2)C1c1ccc2c(c1)OCO2 (stereo not drawn) |
| > 40.3 µM |  | CCSc1nnc(NC(=O)CSc2nnc(Cc3cccn3C)n2CCc2ccccc2)s1 |
| > 40.3 µM | > 66.7 µM (inactive) | O=C1C(CCS(=O)c2ccccc2)C(=O)N(c2ccccc2)N1c1ccccc1 (stereo not drawn) |
| > 40.3 µM | > 66.7 µM (inactive) | Cc1ccc(/C(O)=C2/C(=O)C(=O)N(CCN3CCOCC3)C2c2cccnc2)cc1 (stereo not drawn) |
| > 40.3 µM |  | CCOC(=O)Cc1cc(=O)n2[nH]c(C)c(-c3ccccc3)c2n1 |
| > 40.3 µM |  | N#Cc1c(C(F)(F)F)cc(-c2ccccc2)nc1SCc1nc(N)nc(N2CCOCC2)n1 |
| > 40.3 µM |  | COc1ccc(-c2nc(-c3ccc(NC(=O)c4ccc(Br)o4)cc3)no2)cc1OC |
| > 40.3 µM |  | CCOC(=O)C1CCN(Cc2ccc(C(=O)OC)cc2)CC1 |
| > 40.3 µM |  | CC1(C)S[C@@H]2[C@H](NC(=O)C(C(=O)O)c3ccccc3)C(=O)N2[C@H]1C(=O)O (stereo partly drawn) |
| > 40.3 µM |  | COc1ccccc1Oc1c(C)oc2c(CN(C)C)c(O)ccc2c1=O |
| > 40.3 µM | > 66.7 µM (inactive) | COc1cc(C2C(C(=O)c3cccs3)=C(O)C(=O)N2Cc2ccco2)cc(OC)c1OC (stereo not drawn) |
| > 40.3 µM |  | CCCc1nc2ccccc2c2nc(N)nn12 |
| > 40.3 µM | > 66.7 µM (inactive) | COC(=O)c1[nH]c(C)c(/C(O)=C2\C(=O)C(=O)N(CCN3CCOCC3)C2c2cccnc2)c1C (stereo not drawn) |
| > 40.3 µM |  | CCCNC(=O)CS(=O)(=O)Cc1nc(-c2cccc(OC)c2)oc1C |
| > 40.3 µM |  | Cc1cccc(Nc2ccccc2C(=O)NCc2ccco2)c1C |
| > 40.3 µM |  | Cc1c(C)c2cc(Cl)c(O)c(CN3CCCCC3)c2oc1=O |

| Ki | IC50 | Compound |
| --- | --- | --- |
| > 40.3 µM |  | O=C(NC1CCCC1)C1CC1c1ccccc1 (stereo not drawn) |
| > 40.3 µM | > 66.7 µM (inactive) | COCCN1C(=O)C(O)=C(C(=O)c2cccs2)C1c1ccccc1 (stereo not drawn) |
| 19.1 µM |  | Cc1[nH]n2c(=O)cc(-c3ccc([N+](=O)[O-])cc3)nc2c1-c1ccccc1 |
| > 40.3 µM |  | COc1ccc(NC(=O)C2C3CCC(C3)C2C(=O)O)cc1OC (stereo not drawn) |
| > 40.3 µM |  | Cc1ccc(C)c(-n2c(CNC(=O)c3ccco3)nnc2SCC(=O)N2CCc3ccccc32)c1 |
| > 40.3 µM |  | O=C(Cn1cnc2c(cnn2-c2ccc(F)cc2)c1=O)OCc1ccccc1 |
| > 40.3 µM |  | CC1CCN(c2nc(-c3ccccc3)c(C#N)c(=O)[nH]2)CC1 |
| > 40.3 µM |  | CCC(C)(C(=O)NC1CCCC1)N(CC1CCCO1)C(=O)c1ccc2c(c1)OCO2 (stereo not drawn) |
| 6.7 µM |  | CCOC(=O)CSc1nnc(CNC(=O)c2cc(OCC)c(OCC)c(OCC)c2)n1C |
| > 40.3 µM |  | Cc1nc2c(-c3ccc(F)cc3)c(C)nn2c(C)c1CCC(=O)NC(C)CCc1ccco1 (stereo not drawn) |
| > 40.3 µM |  | CCN(CCCc1ccccc1)CCCc1ccccc1 |
| > 40.3 µM |  | COc1ccc2c(=O)c(-c3cnn(-c4ccccc4)c3)c(C)oc2c1 |
| > 40.3 µM | > 66.7 µM (inactive) | Cc1ccc(/C(O)=C2\C(=O)C(=O)N(CC(C)O)C2c2ccc(N(C)C)cc2)cc1 (stereo not drawn) |
| > 40.3 µM | > 66.7 µM (inactive) | COc1ccc(OC)c(C2C(C(=O)c3cccs3)=C(O)C(=O)N2c2cc(C)on2)c1 (stereo not drawn) |
| > 40.3 µM |  | O=S(=O)(c1cnc[nH]1)N1CCc2ccccc21 |
| > 40.3 µM | > 66.7 µM (inactive) | CCOc1cc(C2C(C(=O)c3ccc(C)o3)=C(O)C(=O)N2CCc2ccccc2)ccc1O (stereo not drawn) |
| > 40.3 µM |  | Cc1nn(-c2nc3ccccc3s2)c(C)c1Oc1ccccc1O |
| > 40.3 µM |  | Cc1ccccc1Nc1cc2ccccc2c(=O)[nH]1 |
| > 40.3 µM |  | CCCNC(=S)Nc1ccc(Nc2ccccc2)cc1 |
| > 40.3 µM | > 66.7 µM (inactive) | COc1ccc(C2C(C(=O)c3ccco3)=C(O)C(=O)N2CCc2ccccc2)cc1OC (stereo not drawn) |
| > 40.3 µM |  | Cc1sc(NC(=O)C2CCCCC2C(=O)O)c(C(N)=O)c1-c1ccc(C(C)(C)C)cc1 (stereo not drawn) |
| > 40.3 µM |  | COc1ccc(-c2nc(N3CCCC3)[nH]c(=O)c2C#N)cc1 |
| > 40.3 µM |  | O=C(c1ccc(Cl)cc1)N(Cc1cccs1)C1CCS(=O)(=O)C1 (stereo not drawn) |
| > 40.3 µM |  | Cc1[nH]n2c(=O)c(C#N)c(-c3ccccc3)nc2c1-c1ccccc1 |

| Ki | IC50 | Compound |
| --- | --- | --- |
| > 40.3 µM |  | O=C(NC1CCCCC1)c1sc(=S)n2c1[nH]c(=O)c1ccccc12 |
| > 40.3 µM |  | CC1Oc2ccccc2N(Cc2ccccc2Cl)C1=O (stereo not drawn) |
| > 40.3 µM |  | O=C(O)C1CCCCC1C(=O)Nc1ccccc1Cl (stereo not drawn) |
| > 40.3 µM |  | O=c1c2c(nc3c(-c4ccc(Cl)cc4)c[nH]n13)CCCC2 |
| > 40.3 µM | > 66.7 µM (inactive) | CCOc1cccc(/C(O)=C2/C(=O)C(=O)N(Cc3ccco3)C2c2ccncc2)c1 (stereo not drawn) |
| > 40.3 µM |  | O=C(NCc1cccnc1)C1c2ccccc2C(=O)N1C1CCCCCC1 (stereo not drawn) |
| 4.6 µM |  | COc1ccc(-c2cn3cccnc3n2)cc1NC(=O)C1CC1 |
| > 40.3 µM | > 66.7 µM (inactive) | O=C(C1=C(O)C(=O)N(c2ncccn2)C1c1cccc(Cl)c1)c1ccco1 (stereo not drawn) |
| > 40.3 µM |  | COc1ccc2c(=O)c(N3C(=O)c4ccccc4C3=O)c(C)oc2c1 |
| > 40.3 µM | > 66.7 µM (inactive) | COc1cc(C2/C(=C(\O)c3ccc4c(c3)CC(C)O4)C(=O)C(=O)N2CCCn2ccnc2)ccc1O (stereo not drawn) |
| > 40.3 µM | > 66.7 µM (inactive) | COCCCN1C(=O)C(O)=C(C(=O)c2ccco2)C1c1cccc(Br)c1 (stereo not drawn) |
| > 40.3 µM | > 66.7 µM (inactive) | COc1ccc(/C(O)=C2/C(=O)C(=O)N(c3nc(C)c(C)s3)C2c2ccco2)cc1 (stereo not drawn) |
| > 40.3 µM |  | COc1cc2c3c(c1)/C(=C1/SC(NC(C)=O)=NC1=O)C(=O)N3C(C)(C)C=C2C |
| > 40.3 µM | > 66.7 µM (inactive) | Cc1ccsc1C1C2=C(CC(C)(C)CC2=O)Nc2ncnn21 (stereo not drawn) |
| > 40.3 µM |  | CCOc1ccccc1NC(=O)CSc1nccn1-c1ccccc1 |
| > 40.3 µM | > 66.7 µM (inactive) | CCOc1ccc(/C(O)=C2/C(=O)C(=O)N(CC3CCCO3)C2c2ccc(C)o2)cc1 (stereo not drawn) |
| > 40.3 µM | > 66.7 µM (inactive) | Cc1nc(C)c(C(=O)C2=C(O)C(=O)N(CCCn3ccnc3)C2c2ccc(Cl)cc2)s1 (stereo not drawn) |
| > 40.3 µM |  | CCOc1ccccc1Oc1c(C)oc2cc(OC(=O)c3ccco3)ccc2c1=O |
| > 40.3 µM |  | CCOC(=O)CCn1nc(-c2ccc(Cl)cc2)cc1N |
| > 40.3 µM | > 66.7 µM (inactive) | O=C1N=c2ccccc2=C1c1sc(=S)n(CC2CCCO2)c1O (stereo not drawn) |
| > 40.3 µM | > 66.7 µM (inactive) | COc1cccc(OC)c1/C(O)=C(\C#N)c1nc2ccccc2[nH]1 |

Source: PubChem BioAssay AID520 (NMMLSC, 2006)
